Patent EP1355153A1, “Screening method for agents against cardiovascular diseases” (NAMAXX GENOMICS GMBH, priority 2002, dated 2003)

Tested on: heart of the chick embryo
Assay: Relative stroke volume of the chick embryo heart by video microscopy (decrease by isoproterenol, rescue by metoprolol)
Format: in vivo, chicken
Conditions: for % remaining stroke volume: 50 µL isoproterenol 1 mM topically, followed by 20 µL metoprolol 15 mM or water-dimethylsulfoxide mix (isoproterenol alone), after 2 minutes at 22°C; for reduction of the stroke volume: isoproterenol alone or applied with metoprolol
Description: Fertilized Bovans Goldline brown chicken eggs (12 hrs after laying, kept at 18°C) were incubated at 38°C and 45 % humidity during 72 hrs (Motorbruter 126-EM, Bruja). The eggshell was then broken and the egg white, the yolk and the embryo were removed and placed in a Petri dish (Greiner, 9.4 cm diameter). This Petri dish was placed in a bigger Petri dish (Greiner, 14 cm diameter) containing water and an incubation is performed at 38°C and 45 % humidity for 24 hrs or 48 hrs. The relative stroke volume of the heart of the chick embryo was then estimated by video microscopy using a binocular (SZX-ZB9, Olympus), a CCD camera (F-View, Soft Imaging Systems) and an image analysis software (AnalySIS Auto Software, Soft Imaging Systems). The beating heart of the embryo was filmed and the grey density of the heart area under systole was subtracted from the density of the heart area under diastole. By performing said subtraction, the so-called "relative stroke volume" is obtained, which represents a relative value instead of a volume.
50 µL of a isoproterenol (Sigma) solution (1mM, water) was then topically applied on the surface of the embryo, followed by 20 µL metoprolol (Sigma) solution (15 mM, Vol-90 % water, 10 % dimethylsulfoxide). Metoprolol is a marketed drug for human use against heart failure (M. Andrejak and M. Slama, Presse Med. 27:2025-30 (1998)). After 2 minutes at 22°C, the heart was monitored and the relative stroke volume was measured. The same experiment was performed by replacing the metoprolol solution by a water-dimethylsulfoxide mix (90 %-10 %) in order to investigate the effect of isoproterenol alone. Controls were performed with untreated embryos. The test groups of the 96 hrs old embryos (Table 1) comprise seven embryos each, while the test groups of the 120 hrs old embryos (Table 2) comprise five embryos each.

[1] = 96 hrs old embryos, after 2 minutes
[2] = 120 hrs old embryos, after 2 minutes incubation

SMILES	% remaining stroke volume (96 hrs old embryos (n=7))	reduction of the stroke volume [1] [%]	% remaining stroke volume (120 hrs old embryos (n=5))	reduction of the stroke volume [2] [%]
CC(C)NCC(O)c1ccc(O)c(O)c1 (centres unmarked) [Isoproterenol, isoproterenol]	25,5%	75	27,2%	72
COCCc1ccc(OCC(O)CNC(C)C)cc1 (centres unmarked) [metoprolol]	57,0%	43	58,8%	41
